Test system: patients with advanced solid tumors
Assay: Phase 1 trial: adverse events (CTCAE), DLT and MTD
Format: in vivo, human
Conditions: Phase 1, 600 mg (N=64)
Procedure: The phase 1 trial was a two-part, multicenter, open-label, nonrandomized study to evaluate the safety and preliminary efficacy of HA121-28.
Safety, tolerability, and PK of HA121-28 was assessed in dose-escalation part. The single-patient accelerated titration was carried out at 25 mg and 50 mg; then, the dose escalation proceeded according to a “3 + 3” design in dose range of 100 to 800 mg. Escalation to a higher dose level was considered by the satisfactory review of safety results from the previous lower dose during the first cycle.
The dose-expansion part aims to further access the safety and efficacy of HA121-28 at the selected doses based on data from the dose-escalation part. The RP2D was determined by investigators in view of a thorough review of safety, PK, and efficacy results.
In phase 1 trial, during the dose-escalation part, patients first administered HA121-28 in a single ascending dose under the fasted state, then followed up for seven days. Then, patients received ascending doses of HA121-28 (q.d.) on a 21-day on and 7-day off treatment scheme for a 28-day cycle. For patients deemed beneficial from the treatment by investigators, treatment could remain until disease progression, or they discontinued from the study. In the dose-expansion part of phase 1, as well as phase 2, patients received HA121-28 (q.d.) at the selected doses on a 21-day on and 7-day off treatment scheme until disease progression, or they discontinued from the study.
Treatment-emergent adverse events (TEAEs) were documented during the entire study period. The predefined adverse event of special interest (AESI) was ≥ grade 3 prolonged QT interval. Tumor imaging was performed using contrast-enhanced computed tomography or magnetic resonance imaging at screening, Day 28 of the first cycle, then approximately every eight weeks till the end of the study for phase 1; in phase 2, imaging was scheduled at screening, and every eight weeks during the first 40 weeks, followed by every 12 weeks for the rest of the study period. RECIST 1.1 was used by the independent review committee or investigators for assessment of tumor response. After the original assessment, a repeated assessment was required around four weeks later to confirm a complete or partial response.
The primary endpoints of phase 1 were to investigate the MTD, dose-limiting toxicities, and the incidence and severity of TEAEs. Each TEAE was graded according to the Common Terminology Criteria for Adverse Events (CTCAE, version 5.0) and coded by Medical Dictionary for Regulatory Activities (MedDRA, version 21.0). The secondary endpoints included calculating PK parameters, assessing the ORR and DCR at the recommended dose by investigators as per RECIST 1.1. The exploratory endpoint was PFS.
If grade 2 or higher toxicity related to the study drug occurs in Groups 1 and 2 (as determined by the investigator), dose escalation will proceed using a 3+3 design starting from that dose level. If no DLT is observed at the 800 mg/d dose level after dose escalation, a meeting of investigators will be convened to decide whether to proceed with further dose escalation based on the available PK data, safety, and tolerability information.
5. Definition of DLT and MTD
The following events related to the study drug (including those that are definitely related, highly likely to be related, and possibly related):
(1) Grade 4 hematologic toxicity or grade 3 neutropenia accompanied by a fever of 38.5℃ or higher, or grade 3 thrombocytopenia accompanied by severe bleeding.
(2) Patients who discontinued the medication for more than 7 days due to unresolved toxicity reactions or who discontinued the medication more than twice due to toxicity […]
(3) In the context of supportive treatment, diarrhea of grade 2 lasting more than 7 days, or grade 3 diarrhea lasting more than 3 days.

SMILES: COc1cc2c(Nc3ccc(Br)cc3F)ncnc2cc1OCCCCN(C)C.Cl.Cl [HA121-28, N-(4-bromo-2-fluorophenyl)-7-(4-(dimethylamino)butoxy)-6-methoxy quinazolin-4-amine dihydrochloride]
- Serious TEAE: Cardiac tamponade: 0 No. (%)
- Serious TEAE: Coronary artery atherosclerosis: 0 No. (%)
- Serious TEAE: Death: 0 No. (%)
- Serious TEAE: Diarrhea: 2 (3.1) No. (%)
- Serious TEAE: Drug eruption: 1 (1.6) No. (%)
- Serious TEAE: Dyspnea: 0 No. (%)
- Serious TEAE: Embolism: 0 No. (%)
- Serious TEAE: Erythema multiforme: 0 No. (%)
- Serious TEAE: Headache: 0 No. (%)
- Serious TEAE: Hemoptysis: 1 (1.6) No. (%)
- Serious TEAE: Hydronephrosis: 0 No. (%)
- Serious TEAE: Hypertension: 0 No. (%)
- Serious TEAE: Hypoalbuminemia: 1 (1.6) No. (%)
- Serious TEAE: Intestinal obstruction: 0 No. (%)
- Serious TEAE: Intra-abdominal fluid collection: 0 No. (%)
- Serious TEAE: Intracranial tumor hemorrhage: 0 No. (%)
- Serious TEAE: Liver injury: 1 (1.6) No. (%)
- Serious TEAE: Lung adenocarcinoma: 0 No. (%)
- Serious TEAE: Malignant neoplasm progression: 2 (3.1) No. (%)
- Serious TEAE: Multiple organ dysfunction syndrome: 0 No. (%)
- Serious TEAE: Nausea: 2 (3.1) No. (%)
- Serious TEAE: Nephrolithiasis: 0 No. (%)
- Serious TEAE: Platelet counts decreased: 1 (1.6) No. (%)
- Serious TEAE: Pleural effusion: 0 No. (%)
- Serious TEAE: Pneumonia: 0 No. (%)
- Serious TEAE: Pneumonitis: 0 No. (%)
- Serious TEAE: Prolonged QT interval: 1 (1.6) No. (%)
- Serious TEAE: Pulmonary embolism: 0 No. (%)
- Serious TEAE: Pyrexia: 0 No. (%)
- Serious TEAE: Rash: 3 (4.7) No. (%)
- Serious TEAE: Rectal hemorrhage: 0 No. (%)
- Serious TEAE: Respiratory failure: 0 No. (%)
- Serious TEAE: Seizure: 0 No. (%)
- Serious TEAE: Septic shock: 0 No. (%)
- Serious TEAE: Sudden cardiac arrest: 1 (1.6) No. (%)
- Serious TEAE: Sudden death: 1 (1.6) No. (%)
- Serious TEAE: Upper respiratory tract infection: 1 (1.6) No. (%)
- Serious TEAE: Ventricular tachycardia: 1 (1.6) No. (%)
- Serious TEAE: Vomiting: 2 (3.1) No. (%)
- Serious TEAE: Weight loss: 2 (3.1) No. (%)
- Serious TRAE: ALT increased: 1 (1.6) No. (%)
- Serious TRAE: AST increased: 1 (1.6) No. (%)
- Serious TRAE: Abdominal Pain: 0 No. (%)
- Serious TRAE: Abdominal distension: 0 No. (%)
- Serious TRAE: Acute cholecystitis: 0 No. (%)
- Serious TRAE: Acute pancreatitis: 0 No. (%)
- Serious TRAE: Anal abscess: 1 (1.6) No. (%)
- Serious TRAE: Any: 13 (20.3) No. (%)
- Serious TRAE: Aortic intramural hematoma: 0 No. (%)
- Serious TRAE: Arrhythmia: 0 No. (%)
- Serious TRAE: Blood bilirubin increased: 1 (1.6) No. (%)
- Serious TRAE: Blood creatinine increased: 1 (1.6) No. (%)
- Serious TRAE: COVID-19: 0 No. (%)
- Serious TRAE: Cardiac tamponade: 0 No. (%)
- Serious TRAE: Coronary artery atherosclerosis: 0 No. (%)
- Serious TRAE: Death: 0 No. (%)
- Serious TRAE: Diarrhea: 2 (3.1) No. (%)

Source: article PMC11868595, “Safety, pharmacokinetics and efficacy of HA121-28 in patients with advanced solid tumors and RET fusion-positive non-small-cell lung cancer: a multicenter, open-label, single-arm phase 1/2 trial” (Signal Transduction and Targeted Therapy, 2025)
